Laboratory results published in US20250066370A1, “BICYCLIC TRIAZINE DERIVATIVES FOR THE TREATMENT OF CANCER” (DEUTSCHES KREBSFORSCHUNGSZENTRUM, priority 2022, published 2025).

Tests used:
Type in all cases: cell-based, human
MDA-MB-231-CDK12d-res = test: Proliferation assay CDK12 degrader resistant MDA-MB-231; settings: for IC50: Homo sapiens, 96 h, CDK12 degrader resistant MDA-MB-231 cells, 4 days, median, read-out: Prolif-MDA MB-231-CDK12d-res, IC50 - [mol/] (median); for Ratio (Prolif-MDA MB-231-CDK12d-res IC50 / Prolif-MDA MB-231 IC50): resistant versus parental MDA-MB-231 cells
Excerpt: (§1) CDK12-degrader resistant cells were generated by propagation of CAL-120 human breast adenocarcinoma cells (DSMZ ACC-459) and MDA-MB-231 human breast cancer cells (ATCC HTB-26) in presence of increasing concentrations of the CDK12 degrader compound example 4 from WO 2021/116178. Initial concentrations of example 4 were 2.0E-08 M for CAL-120 cells and 4.6E-08 M for MDA-MB-231 cells, corresponding to ca. 2-fold the IC50 of inhibition of the cells in an proliferation assay. After the treated cells recovered and proliferated again the concentration of compound example 4 was increased to 3-fold IC50.
(§2) To determine the inhibitory effect of test compounds on proliferation of CAL-120-CDK12d-res, MDA-MB-231-CDK12d-res the cells were plated at a density of 4,000 cells/well in a 96-well multitier plate in 200 microL of their respective growth medium supplemented 10% fetal calf serum. After 24 hours, the cells of one plate (zero-point plate) were stained with crystal violet (see below), while the medium of the other plates was supplemented with the test substances in various concentrations (0 micromol/L, as well as in the range of 0.01-10 micromol/L; the final concentration of the solvent dimethyl sulfoxide was adjusted to 0.1%) using a Tecan HP D300 Digital Dispenser. The cells were incubated for 4 days in the presence of test substances. Cell proliferation was determined by staining the cells with crystal violet: the cells were fixed by adding 20 microL/measuring point of an 11% glutaric aldehyde solution for 15 minutes at room temperature. After three washing cycles of the fixed cells with water, the plates were dried at room temperature. The cells were stained by adding 100 microL/measuring point of a 0.1% crystal violet solution (pH 3.0). After three washing cycles of the stained cells with water, the plates were dried at room temperature. The dye was dissolved by adding 100 microL/measuring point of a 10% acetic acid solution. The extinction was determined by photometry at a wavelength of 595 nm. The change of cell number, in percent, was calculated by normalization of the measured values to the extinction values of the zero-point plate (=0%) and the extinction of the untreated (0 μM) cells (=100%). The IC50 values (inhibitory concentration at 50% of maximal effect) were determined by means of a 4 parameter fit.

CAL-120-CDK12d-res = test: Proliferation assay CDK12 degrader resistant CAL-120; settings: for IC50: Homo sapiens, 96 h, CDK12 degrader resistant CAL-120 cells, 4 days, median, read-out: Prolif-CAL-120-CDK12d-res, IC50 - [mol/l] (median); for Ratio (Prolif-CAL-120-CDK12d-res IC50 / Prolif-CAL-120 IC50): resistant versus parental CAL-120 cells
Excerpt: as §1, §2

CYCLIN K = CYCLIN K nuclear protein level: immunofluorescence/high content analysis in CAL-120 cells; settings: 24 h, nuclear CCNK staining intensity, median, read-out: CYCLIN K degradation IF, DC50 - [mol/l] (median)
Procedure: CAL-120 human breast cancer cells (DSMZ ACC 459) are seeded in 1536-well microtiter plates (800 cells per well) containing 50 nanoL of compounds in Dose-Response. Control wells received DMSO or Example 4. Plates are then incubated for 24 h at 37° C. in an humidified incubator and fixed with 4% PFA for 10 min. Then immunofluorescence (IF) against CYCLIN K (ThermoFisher Scientific CCNK Antibody #PA5-85020, rabbit, 1:200 dilution) is performed using standard IF protocols. Cells are then stained with Hoechst 33342 (Life Technologies, H-1399, 0.1 microg/ml) and imaged on an automated confocal microscopy system (e.g. Perkin Elmer Opera Phenix). Nuclear and cytoplasmic intensity as well as the nuclear/cytoplasmic intensity ratio is determined by automated image analysis using custom generated scripts (MetaXpress). Data is then transferred to Genedata Screener software, normalized to DMSO and control and DC50 values (degrading concentration to achieve 50% reduction of nuclear CCNK staining intensity relative to controls) are reported.

IC50 (MDA-MB-231-CDK12d-res) [nM]	DC50 (CYCLIN K) [nM]	SMILES	Ratio (Prolif-MDA MB-231-CDK12d-res IC50 / Prolif-MDA MB-231 IC50) (MDA-MB-231-CDK12d-res)	IC50 (CAL-120-CDK12d-res) [nM]	Ratio (Prolif-CAL-120-CDK12d-res IC50 / Prolif-CAL-120 IC50) (CAL-120-CDK12d-res)
150		FC(F)(F)c1ccc(-c2cnc(CNc3nc(N4CCOCC4)nc4c(C(F)(F)F)cnn34)[nH]2)cc1 [Example 9, 2-(morpholin-4-yl)-8-(trifluoromethyl)-N-({5-[4-(trifluoromethyl)phenyl]-1H-imidazol-2-yl}methyl)pyrazolo[1,5-a][1,3,5]triazin-4-amine]	0.8	105	1.0
	> 1000	COc1ccc(-c2nnc(CNc3nc(N4CCOCC4)nc4c(C(F)(F)F)cnn34)[nH]2)cn1 [Example 15, N-{[5-(6-methoxypyridin-3-yl)-4H-1,2,4-triazol-3-yl]methyl}-2-(morpholin-4-yl)-8-(trifluoromethyl)pyrazolo[1,5-a][1,3,5]triazin-4-amine]			
	> 1000	FC(F)(F)Oc1ccc(-c2nnc(CNc3nc(N4CCOCC4)nc4c(C(F)(F)F)cnn34)[nH]2)cc1 [Example 5, 2-(morpholin-4-yl)-N-({5-[4-(trifluoromethoxy)phenyl]-4H-1,2,4-triazol-3-yl}methyl)-8-(trifluoromethyl)pyrazolo[1,5-a][1,3,5]triazin-4-amine]			
156	228	FC(F)(F)Oc1ccc(-c2cnc(CNc3nc(N4CCOCC4)nc4c(C(F)(F)F)cnn34)[nH]2)cc1 [Example 10, 2-(morpholin-4-yl)-N-({5-[4-(trifluoromethoxy)phenyl]-1H-imidazol-2-yl}methyl)-8-(trifluoromethyl)pyrazolo[1,5-a][1,3,5]triazin-4-amine]	1.3	139	2.0
31		FC(F)(F)c1ccc(-c2cnc(CNc3nc(N4CCOCC4)nn4c(C(F)(F)F)cnc34)[nH]2)cn1 [Example 12, 2-(morpholin-4-yl)-7-(trifluoromethyl)-N-({5-[6-(trifluoromethyl)pyridin-3-yl]-1H-imidazol-2-yl}methyl)imidazo[2,1-f][1,2,4]triazin-4-amine]	1.4	22.1	1.5
	> 1000	FC(F)(F)c1ccc(-c2nnc(CNc3nc(N4CCOCC4)nn4c(C(F)(F)F)cnc34)[nH]2)cc1 [Example 11, 2-(morpholin-4-yl)-7-(trifluoromethyl)-N-({5-[4-(trifluoromethyl)phenyl]-4H-1,2,4-triazol-3-yl}methyl)imidazo[2,1-f][1,2,4]triazin-4-amine]			
	124	Cc1ccc(-c2nnc(CNc3nc(N4CCOCC4)nn4c(C(F)(F)F)cnc34)[nH]2)cn1 [Example 23, N-{[5-(6-methylpyridin-3-yl)-4H-1,2,4-triazol-3-yl]methyl}-2-(morpholin-4-yl)-7-(trifluoromethyl)imidazo[2,1-f][1,2,4]triazin-4-amine]			
288	> 1000	COc1ccc(-c2nnc(CNc3nc(N4CCOCC4)nn4c(C(F)(F)F)cnc34)[nH]2)cn1 [Example 18, N-{[5-(6-methoxypyridin-3-yl)-4H-1,2,4-triazol-3-yl]methyl}-2-(morpholin-4-yl)-7-(trifluoromethyl)imidazo[2,1-f][1,2,4]triazin-4-amine]	4.0	252	2.4
	> 1000	FC(F)(F)c1ccc(-c2nnc(CNc3nc(N4CCOCC4)nc4c(C(F)(F)F)cnn34)[nH]2)cc1 [Example 6, 2-(morpholin-4-yl)-8-(trifluoromethyl)-N-({5-[4-(trifluoromethyl)phenyl]-4H-1,2,4-triazol-3-yl}methyl)pyrazolo[1,5-a][1,3,5]triazin-4-amine]			
103		FC(F)(F)Oc1ccc(-c2nnc(CNc3nc(N4CCOCC4)nn4c(C(F)(F)F)cnc34)[nH]2)cn1 [Example 19, 2-(morpholin-4-yl)-N-({5-[6-(trifluoromethoxy)pyridin-3-yl]-4H-1,2,4-triazol-3-yl}methyl)-7-(trifluoromethyl)imidazo[2,1-f][1,2,4]triazin-4-amine]	2.7	97.1	1.5
155	> 1000	FC(F)(F)c1ccc(-c2nnc(CNc3nc(N4CCOCC4)nn4c(C(F)(F)F)cnc34)[nH]2)cn1 [Example 20, 2-(morpholin-4-yl)-7-(trifluoromethyl)-N-({5-[6-(trifluoromethyl)pyridin-3-yl]-4H-1,2,4-triazol-3-yl}methyl)imidazo[2,1-f][1,2,4]triazin-4-amine]	2.9	118	1.4
62.6	> 1000	FC(F)(F)c1ccc(-c2cnc(CNc3nc(N4CCOCC4)nc4c(C(F)(F)F)cnn34)[nH]2)cn1 [Example 24, 2-(morpholin-4-yl)-8-(trifluoromethyl)-N-({5-[6-(trifluoromethyl)pyridin-3-yl]-1H-imidazol-2-yl}methyl)pyrazolo[1,5-a][1,3,5]triazin-4-amine]	2.9	40.7	1.3
